Assay results from patent EP0231444A2, “Optically active isomers and racemate of 1-(benztriazol-4-yloxy)-3-[2-(2-methoxyphenoxy)-ethylamino]-2-propanol, process for their preparation as well as their use as medicaments” (BOEHRINGER MANNHEIM GMBH, priority 1985, dated 1987).
Structures can show the parent of a compound that is named as a salt.

What was measured:
Augeninnendruck = assay: lowering of intraocular pressure on local application (no method described); type: in vivo; settings: lokale Applikation, qualitative statement
[1] = biological target: β₂-Rezeptoren (Rezeptoren der glatten Muskulatur) (Homo sapiens, UniProt P07550); assay: beta-2 adrenergic receptor blockade (no method described); settings: qualitative statement
Sequence of β₂-Rezeptoren (Rezeptoren der glatten Muskulatur) (P07550 whole entry): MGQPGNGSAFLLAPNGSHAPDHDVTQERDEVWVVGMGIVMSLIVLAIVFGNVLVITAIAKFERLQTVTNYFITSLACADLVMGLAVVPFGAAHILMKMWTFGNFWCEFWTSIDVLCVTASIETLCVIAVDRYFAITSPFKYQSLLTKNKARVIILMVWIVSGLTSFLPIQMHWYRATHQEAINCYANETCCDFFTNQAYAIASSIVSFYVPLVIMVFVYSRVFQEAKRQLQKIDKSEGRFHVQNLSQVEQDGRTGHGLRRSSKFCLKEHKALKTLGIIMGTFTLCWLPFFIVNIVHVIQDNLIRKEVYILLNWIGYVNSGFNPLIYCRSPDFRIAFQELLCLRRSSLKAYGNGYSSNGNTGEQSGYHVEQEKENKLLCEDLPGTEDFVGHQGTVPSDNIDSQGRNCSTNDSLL

[2] = biological target: β₁-Rezeptoren (Rezeptoren des Herzmuskels) (Homo sapiens, UniProt P08588); assay: beta-1 adrenergic receptor blockade (no method described); settings: qualitative statement
Sequence of β₁-Rezeptoren (Rezeptoren des Herzmuskels) (P08588 whole entry): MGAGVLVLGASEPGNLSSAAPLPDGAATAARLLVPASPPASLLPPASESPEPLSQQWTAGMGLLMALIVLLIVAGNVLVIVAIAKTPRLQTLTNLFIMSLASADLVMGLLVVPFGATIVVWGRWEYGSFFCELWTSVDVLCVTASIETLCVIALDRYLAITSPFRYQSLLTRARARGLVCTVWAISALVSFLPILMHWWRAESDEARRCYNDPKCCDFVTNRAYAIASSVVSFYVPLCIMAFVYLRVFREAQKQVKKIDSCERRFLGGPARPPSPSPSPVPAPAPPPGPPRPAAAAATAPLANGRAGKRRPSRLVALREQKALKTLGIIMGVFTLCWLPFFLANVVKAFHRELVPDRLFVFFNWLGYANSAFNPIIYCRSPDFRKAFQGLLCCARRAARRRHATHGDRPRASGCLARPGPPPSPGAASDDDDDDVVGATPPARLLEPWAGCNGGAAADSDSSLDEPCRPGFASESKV

Blutgefäße [3] = settings: as described in EP-B 14 951; cited from earlier work
Blutgefäße [4] = assay: vasodilating effect (no method described); settings: qualitative statement, enantiomers
[5] = listed as erfindungsgemäße Substanz

Row | SMILES | augeninnendrucksenkende Wirkung (Augeninnendruck) | augeninnendrucksenkende Wirkung (Augeninnendruck; [5]) | β₂-blockierende Wirkung ([1]; listed as Beispiel 8 b) | β₂-blockierende Wirkung [1, 5] | Selektivität β₁ gegenüber β₂ (cardioselektiv) ([2]; β₁ versus β₂) | β₁-blockierende Wirkung ([2]; listed as Beispiel 8 b) | β₁-blockierende Wirkung [2, 5] | vasodilatierende Eigenschaften (Blutgefäße [3]) | vasodilatierende / blutgefäßerweiternde Wirkung (Blutgefäße [4]) | β₁-blockierende Wirkung [2] | β₂-blockierende Wirkung [1]
1 | COc1ccccc1OCCNCC(O)COc1cccc2[nH]nnc12 (racemic) [racemische Substanz, 1-(Benztriazol-4-yloxy)-3-(2-(2-methoxyphenoxy)-ethylamino)-2-propanol] | in extrem geringer Konzentration | im gleichen Maße vorhanden ist wie bei üblichen bekannten β-blockierenden Verbindungen | nicht oder nur wenig beeinflußt | nur sehr geringe β₂-blockierende Wirkung | cardioselektiv | vorwiegend eine β₁-blockierende Wirkung | β₁-blockierende Wirkung besitzt | vasodilatierende Eigenschaften |  |  | 
2 | COc1ccccc1OCCNC[C@H](O)COc1cccc2[nH]nnc12 (single isomer, unassigned) [S-Enantiomere, S-(-)-1-(Benztriazol-4-yloxy)-3-(2-(2-methoxyphenoxy)-ethyl-amino)-2-propanol-hydrochlorid] |  |  |  |  |  |  |  |  | blutgefäßerweiternde | praktisch die gesamte | 
3 | COc1ccccc1OCCNC[C@@H](O)COc1cccc2[nH]nnc12 (single isomer, unassigned) [R-Enantiomere] | augendrucksenkenden Wirkung |  |  |  |  |  |  |  |  | keine β₁-blockierende | keine β₂-blockierende
